Tests used:
Ikaros = molecular target: T1, Ikaros (Homo sapiens, UniProt Q13422+Q96SW2); test: Intracellular Ikaros expression (flow cytometry MFI) in anti-CD19 CAR-expressing T cells after overnight incubation; assay type: cell-based
T1 construct: intracellular levels of Ikaros in CD4+ CAR+ or CD8+ CAR+ cells; endogenous in cells; host or cells: primary human CD4+ and CD8+ T cells transduced with an anti-CD19 CAR (FMC63 scFv)
Experimental: Transduced populations then were separately incubated in the presence of stimulating reagents for cell expansion.

[1] = tested on: Granta-519 or Raji target cells; test: Cytokine production and cytolytic activity of anti-CD19 CAR+ T cells with Granta-519 or Raji target cells; assay type: cell-based, human
Experimental: Similar studies as above were conducted using Granta-519 or Raji target cells to assess cytokine production and cytolytic activity of anti-CD19 CAR-expressing T cells upon co-culture with the target cells. As shown in FIG. 33B Raji cells were selected due to high expression of cell surface molecule CD19 when compared to Granta-519, as quantified by flow cytometry. Enumeration of CD19 was inferred by a standard curve generated using molecules of equivalent soluble fluorophore beads.
After 24 hours of culture cytokine production was monitored in the supernatant. […] Cytolytic activity also was measured for pooled donors over time of the co-culture.

phosphorylated STAT5 = test: Phosphorylated STAT5 in CAR T cells incubated with conditioned supernatants; assay type: cell-based, human; conditions: both concentrations used
Experimental: Conditioned supernatants from stimulated CAR T cultures were harvested after overnight treatment and incubated with freshly thawed CAR T cells from three donors alone or in the presence of a blocking IL-2 antibody. After short term stimulation, CAR T cells were then assessed by flow cytometry for phosphorylated STAT5.

[2] = tested on: Raji lymphoma tumor cells; test: Raji-ffluc tumor xenograft model, CAR-expressing T cells in combination with Compound 1; assay type: in vivo, NSG mice
Experimental: The anti-tumor efficacy of CAR-expressing T cells in combination with 3-(5-amino-2-methyl-4-oxo-4H-quinazolin-3-yl)-piperidine-2,6-dione (Compound 1) was assessed by monitoring tumors in a tumor xenograft model. Anti-CD19 CAR-expressing T cell compositions, containing CD4+ and CD8+ T cells combined at a 1:1 ratio, were generated substantially as described in Example 14. T cell compositions were generated from three different donors.
NOD.Cg.Prkdc^scidIL2rg^tmlWjl/SzJ (NSG) mice were injected intravenously (i.v.) with 0.5×10^6 Raji lymphoma tumor cells (an immortalized human B lymphocyte tumor cell line that expresses CD19) that were transfected with firefly luciferase (Raji-ffluc). Tumor engraftment was allowed to occur for 6 days and verified using bioluminescence imaging. On Day 7, mice either received no treatment, or a single intravenous (i.v.) injection of anti-CD19 CAR-expressing cells at a low dose (0.5×10^6 cells) or a high dose (1.0×10^6 cells). […] Tumor burden was assessed by bioluminescence every 10 days. For bioluminescence imaging, mice received intraperitoneal (i.p.) injections of luciferin substrate (CaliperLife Sciences, Hopkinton, MA) resuspended in PBS (15 μg/g body weight). The average radiance (p/s/cm^2/sr) was determined. Survival of mice treated as described above were assessed and compared until day 100 post-infusion of CAR-expressing T cells.

Nr4a1 (Nur77) reporter = test: CAR signaling in Jurkat Nur77 reporter cell line; assay type: cell-based; conditions: anti-CD19 CAR or anti-ROR1 CAR; up to 6 hours
From the text: Cells of a reporter cell line were transduced using lentiviral vectors encoding the anti-CD19 CAR described in Example 14 or an anti-ROR1 CAR were introduced into cells of a Jurkat reporter cell line to assess CAR signaling in the presence of CAR stimulation. The anti-ROR1 CAR contained an anti-ROR1 scFv derived from a murine antibody, an immunoglobulin-derived spacer, a transmembrane domain derived from CD28, a costimulatory region derived from 4-1BB, and a CD3-zeta intracellular signaling domain. The Jurkat reporter cell lines contained a red fluorescent protein inserted by knock-ininto the endogenous Nr4a1 (Nur77) gene.

OPM-2 = test: Cytolytic activity of anti-BCMA CAR T cells against OPM-2 target cells; assay type: cell-based, human
Experimental: […]. The OPM-2 cells were labeled with NucLight Red (NLR) to permit tracking of target cells by microscopy substantially as described above. […] […].
[…]. Cytolytic activity was measured by loss of red fluorescent cells. […].

anti-CD19 CAR+ T cells = test: IL-10 in supernatants of anti-CD19 CAR+ T cells incubated with K562-CD19 cells; assay type: cell-based, human; conditions: E:T 3:1 or 9:1, 24 hours
anti-BCMA CAR T cells = test: Proliferation and expansion of anti-BCMA CAR T cells stimulated with BCMA-conjugated beads; assay type: cell-based, human; conditions: 5 μM
Experimental: To further assess proliferation, the cells containing anti-BCMA CAR-expressing T cells were labeled with the proliferation marker dye CELLTRACE VIOLET (CTV; ThermoFisher Scientific, Waltham MA) in accordance with the manufacturer's protocol prior to incubation with the BCMA-conjugated beads. Proliferation was assessed by dye dilution using flow cytometry on cells that were stimulated with beads from the 50 μg/mL BCMA-conjugated bead composition.
Four days and seven days after addition of BCMA-conjugated beads, the incubated cells were stained with CD4 or CD8 and with an anti-EGFR antibody to determine the percentage of cells positive for EGFRt as a surrogate for CAR+ T cells.

[3] = tested on: K562.CD19, Raji cells or Granta-519 cells; test: Cytolytic activity against CD19+ tumor cells, rescue with Compound 2 after chronic stimulation; assay type: cell-based, human; conditions: 0.001 μM or 0.01 μM during rechallenge; E:T 1:1
Experimental: Long-term, chronic stimulation was carried out by stimulation of CAR T cells with 30 μg/mL plate-bound anti-idiotypic (anti-ID) antibody for 6 days, substantially as described in Example 22.
The assessed CD19+tumor cells included K562 cells transduced with CD19 (K562.CD19), Raji cells or Granta-519 cells.

[4] = tested on: BCMA-expressing RPMI-8226 MM cells; test: Rescue of chronically stimulated anti-BCMA CAR T cells rechallenged with RPMI-8226 MM cells; assay type: cell-based; conditions: 1 nm or 10 nM during rechallenge
Experimental: Studies were undertaken to determine whether Compound 2 rescued anti-BCMA CAR T cell function following chronic stimulation. To directly stimulate via CAR engagement to induce chronic stimulation of cells, anti-BCMA CAR T cells were stimulated with BCMA conjugated beads (diameter about 4.5 pm from a 50 μg/ml BCMA-conjugated bead composition, generated as described in Example 9) at a ratio of T cells to beads of 1:1. The cells were then incubated at 37° C., 5% CO2 for 7 days.
Cultures were incubated at 37° C., 5% CO2, and images were taken every 2 hours over 5-7 days with an Essen IncuCyte Zoom live-cell analysis system to track NucLightRed-positive target cells.

T1 sequence (Q13422 whole entry): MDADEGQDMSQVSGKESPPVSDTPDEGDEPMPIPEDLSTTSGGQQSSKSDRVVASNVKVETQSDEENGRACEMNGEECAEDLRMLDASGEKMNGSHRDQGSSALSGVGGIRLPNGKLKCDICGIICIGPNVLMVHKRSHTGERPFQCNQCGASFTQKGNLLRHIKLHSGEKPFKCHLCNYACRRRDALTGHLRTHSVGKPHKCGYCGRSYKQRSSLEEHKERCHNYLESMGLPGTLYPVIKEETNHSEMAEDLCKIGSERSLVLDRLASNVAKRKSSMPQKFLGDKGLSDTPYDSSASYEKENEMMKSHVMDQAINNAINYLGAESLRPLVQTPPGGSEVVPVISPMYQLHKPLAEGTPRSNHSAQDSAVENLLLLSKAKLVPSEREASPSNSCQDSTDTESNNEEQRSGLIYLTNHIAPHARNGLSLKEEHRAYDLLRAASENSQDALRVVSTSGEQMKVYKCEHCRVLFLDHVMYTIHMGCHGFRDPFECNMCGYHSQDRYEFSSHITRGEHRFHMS
T1 sequence (Q96SW2 whole entry): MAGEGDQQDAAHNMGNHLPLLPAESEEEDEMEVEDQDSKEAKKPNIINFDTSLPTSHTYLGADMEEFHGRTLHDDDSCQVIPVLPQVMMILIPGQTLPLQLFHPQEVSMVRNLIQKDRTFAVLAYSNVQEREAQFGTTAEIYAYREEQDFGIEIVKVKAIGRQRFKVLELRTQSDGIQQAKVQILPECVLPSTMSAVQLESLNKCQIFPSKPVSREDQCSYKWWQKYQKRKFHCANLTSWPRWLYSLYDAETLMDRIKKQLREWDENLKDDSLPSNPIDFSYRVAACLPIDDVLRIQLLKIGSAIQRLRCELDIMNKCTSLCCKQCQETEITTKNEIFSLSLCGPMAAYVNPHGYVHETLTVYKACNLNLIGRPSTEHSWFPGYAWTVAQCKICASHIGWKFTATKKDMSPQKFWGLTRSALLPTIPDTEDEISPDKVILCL
T1 sequence (Q16531 whole entry partner): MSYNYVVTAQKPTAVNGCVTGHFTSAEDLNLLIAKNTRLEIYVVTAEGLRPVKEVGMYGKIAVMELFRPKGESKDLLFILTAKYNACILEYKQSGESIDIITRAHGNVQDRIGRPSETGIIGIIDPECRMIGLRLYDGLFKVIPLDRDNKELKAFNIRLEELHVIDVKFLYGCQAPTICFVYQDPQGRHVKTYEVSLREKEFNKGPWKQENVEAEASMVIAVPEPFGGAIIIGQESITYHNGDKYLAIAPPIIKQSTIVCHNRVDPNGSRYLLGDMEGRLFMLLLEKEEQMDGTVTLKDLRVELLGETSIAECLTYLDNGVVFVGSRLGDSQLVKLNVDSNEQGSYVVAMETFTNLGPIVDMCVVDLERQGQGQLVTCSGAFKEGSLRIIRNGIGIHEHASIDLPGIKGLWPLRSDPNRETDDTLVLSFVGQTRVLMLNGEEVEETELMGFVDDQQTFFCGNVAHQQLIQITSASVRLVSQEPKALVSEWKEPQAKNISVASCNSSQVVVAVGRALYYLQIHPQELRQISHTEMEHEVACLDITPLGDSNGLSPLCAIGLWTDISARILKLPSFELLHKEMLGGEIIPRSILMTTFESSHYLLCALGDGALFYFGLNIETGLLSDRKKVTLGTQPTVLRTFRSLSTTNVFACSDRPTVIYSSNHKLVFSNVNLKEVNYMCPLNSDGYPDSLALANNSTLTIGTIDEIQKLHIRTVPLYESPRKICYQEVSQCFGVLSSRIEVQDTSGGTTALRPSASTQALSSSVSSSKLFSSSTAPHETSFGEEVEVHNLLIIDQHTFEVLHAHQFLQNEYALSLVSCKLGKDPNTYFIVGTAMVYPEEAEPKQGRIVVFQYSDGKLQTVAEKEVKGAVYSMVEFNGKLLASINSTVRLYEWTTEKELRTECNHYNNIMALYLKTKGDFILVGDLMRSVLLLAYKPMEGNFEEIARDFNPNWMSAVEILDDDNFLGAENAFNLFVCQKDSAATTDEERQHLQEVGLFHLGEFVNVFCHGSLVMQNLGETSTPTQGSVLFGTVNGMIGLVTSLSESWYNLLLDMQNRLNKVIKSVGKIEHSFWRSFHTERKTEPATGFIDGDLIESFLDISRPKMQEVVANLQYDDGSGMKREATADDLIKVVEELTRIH

In the case of Cc1nc2cccc(N)c2c(=O)n1C1CCC(=O)NC1=O (stereo not drawn) [Compound 1, 3-(5-amino-2-methyl-4-oxo-4H-quinazolin-3-yl)-piperidine-2,6-dione], the “reduction in Ikaros expression compared to lenalidomide” value (Ikaros) is reported as “greater reduction”, the “intracellular Ikaros expression” value (Ikaros; CD4+ and CD8+ anti-CD19 CAR-expressing T cells) is reported as “concentration-dependent decrease” and the IL-2 production ([1]; 100 or 1000 nM, 2.5:1 E:T, 24 hours) is reported as “increase compared to control”. For the same molecule, the IFN-γ production ([1]; 100 or 1000 nM, 2.5:1 E:T, 24 hours, CD8+ CAR-expressing T cells) was “concentration dependent increase”, the “cytolytic activity over time” value ([1]; pooled donors, CD8+ CAR-expressing T cells) was “limited effect” and the “median fluorescence intensity of phosphorylated STAT5 (pSTAT5)” value (phosphorylated STAT5) was “increased”. For the same molecule, the “tumor burden compared to CAR-expressing cells alone” value ([2]; 0.3 mg/kg i.p. once a day, Concurrent and Delayed groups) was “reduce tumor burden”, the “percent survival compared to anti-CD19 CAR-T cells only” value ([2]; delayed or concurrent, low and high CAR-T dose) was “greater percent survival” and the “Nur77 reporter signal following CAR-specific stimulation” value (Nr4a1 (Nur77) reporter) was “increased”.

With Nc1cccc2c1CN(C1CCC(=O)NC1=O)C2=O (stereo not drawn) [lenalidomide, 3-(4-amino-1-oxo-1,3-dihydro-2H-isoindol-2-yl)piperidine-2,6-dione] the “cytolytic activity of anti-BCMA CAR+ T cells against OPM-2” value (OPM-2; 0.01-10 μM, E:T 1:1, 7 days, four donors, dose-dependent) was “enhance”, the “antigen-specific anti-BCMA CAR-T cytolytic activity and cytokine production” value (OPM-2; healthy donor and pomalidomide-refractory multiple myeloma patient CAR T, 0.01-10 μM) was “increased” and the “anti-BCMA CAR T cytolytic activity against OPM-2” value (OPM-2; three healthy donors and one IMiD-refractory patient, all donors) was “Increased”. The “secretion and/or accumulation of IL-10 in supernatants” value (anti-CD19 CAR+ T cells) was “dose-dependently increased”, the “extent of CAR+ T cell expansion (EGFRt+)” value (anti-BCMA CAR T cells) was “did not substantially impact” and the “total cell count at day 7” value (anti-BCMA CAR T cells; 50 μg beads) was “small increase in proliferation”.

In the case of O=C1CC[C@H](N2Cc3c(OCc4ccc(CN5CCOCC5)cc4)cccc3C2=O)C(=O)N1 [Compound 2, (S)-3-[4-(4-morpholin-4-ylmethyl-benzyloxy)-1-oxo-1,3-dihydro-isoindol-2-yl]-piperidine-2,6-dione], the “cytolytic activity (tumor cell number over time)” value [3] is reported as “statistically significant improvement in cytolytic activity”, the “cytolytic activity of chronically stimulated anti-BCMA CAR T cells” value ([4]; 0.3:1 E:T) is reported as “improvement in cytolytic activity” and the “production of IFN-gamma, IL-2 or TNF-alpha” value ([4]; 24 hours) is reported as “increased production”.

— patent US20250186503A1, “METHODS AND COMBINATIONS FOR TREATMENT AND T CELL MODULATION” (Juno Therapeutics, Inc., priority 2018, published 2025)
